Measured values as given in US10087172B2, “Compounds and their methods of use” (AGIOS PHARMACEUTICALS, INC, priority 2012, dated 2018).

What follows are compounds tested against T1, glutaminase (GAC) (Homo sapiens, UniProt O94925) (assay: Glutaminase (GAC) coupled endpoint enzymatic assay (glutamate dehydrogenase/diaphorase/resazurin, Ex544/Em590)). Details: inhibition of glutaminase, tested in an assay of Example A or Example B; class symbols A-E.
T1 sequence (O94925 55-598 isoform O94925-3 limits assumed): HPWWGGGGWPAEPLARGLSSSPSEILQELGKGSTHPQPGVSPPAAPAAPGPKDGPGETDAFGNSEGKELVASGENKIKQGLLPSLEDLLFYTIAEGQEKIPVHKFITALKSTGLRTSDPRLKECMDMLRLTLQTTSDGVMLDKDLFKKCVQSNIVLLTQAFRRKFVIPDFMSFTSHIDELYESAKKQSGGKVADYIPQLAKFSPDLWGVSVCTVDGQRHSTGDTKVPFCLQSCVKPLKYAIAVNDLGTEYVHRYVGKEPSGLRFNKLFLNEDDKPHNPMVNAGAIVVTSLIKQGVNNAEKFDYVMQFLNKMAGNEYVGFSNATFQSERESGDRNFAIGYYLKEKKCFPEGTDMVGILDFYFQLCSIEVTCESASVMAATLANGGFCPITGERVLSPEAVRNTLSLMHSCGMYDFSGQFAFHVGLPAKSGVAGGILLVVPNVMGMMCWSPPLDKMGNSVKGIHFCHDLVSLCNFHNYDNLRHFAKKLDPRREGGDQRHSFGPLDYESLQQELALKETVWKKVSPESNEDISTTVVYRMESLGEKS
Format: biochemical
Source text: In certain embodiments, exemplary compounds of Formula I include the compounds described in Table 1 and in the Examples. A compound described herein may be tested for its ability to inhibit glutaminase, e.g., by an assay as described in the Examples. For simplicity, the inhibition activity of these compounds is represented as an IC50 tested in an assay of Example A or Example B in Table 1. […] “N/A” refers to compounds wherein the IC50 is unavailable.
In this example, the enzymatic activity of glutaminase is measured through a coupled endpoint assay. Glutamine and phosphate are supplied to GAC at a concentration equal to Km and AC50, respectively, and GAC concentration is adjusted to give a linear reaction for 60 minutes. The glutamate produced is converted to 2-OG by a kinetic excess of glutamate dehydrogenase. This second step is configured for 2× Km for NAD, since excess NAD is inhibitory. However, a kinetic excess of the third coupling enzyme, diaphorase, recycles NAD from NADH to keep the NAD concentration constant during the timecourse of the assay. Diaphorase, also supplied in kinetic excess, oxidizes NADH produced by GDH back to NAD with the concomitant reduction of rezasurin to the highly fluorescent resorufin. Resorufin in measured after the assay is stopped with SDS by Ex544/Em590. A reduction in the signal indicates inhibition of some component of the coupled enzyme system. Prospective hits are counterscreened against GDH/diaphorase alone to remove hits to the coupling enzyme system in a second assay.
2. Buffers 2× Buffer (300 mM NaCl, 100 mM HEPES pH 8.5, 0.1% BSA, 0.5 mM EDTA, 100 mM sodium phosphate pH 8.5) 5× Substrate Mix (1× Buffer final concentration, with 13 mM glutamine, 100 μM resazurin, 50 μg/ml diaphorase) 1.2× Enzyme Mix (1× Buffer final concentration, with 0.875 μg/ml GAC, 1.56 mM NAD, 6.25 units/ml GDH) Stop Mix (6% SDS in ddH2O) Reaction Procedure 1. Add 1 μl compound in 100% DMSO 2. Add 40 μl of Enzyme Mix and incubate for 60 minute at room temperature 3. Add 10 μl of Substrate Mix to start reaction 4. Stop reaction with 25 μl of 6% SDS and read Ex544 Em 590

`O=C(Nc1nnc([C@H]2CCC[C@H](c3nnc(NC(=O)[C@@H](O)c4ccccc4)s3)C2)s1)[C@@H](O)c1ccccc1` [Compound 371, (2R,2′S)—N,N′-(5,5′-((1S,3S)-cyclohexane-1,3-diyl)bis(1,3,4-thiadiazole-5,2-diyl))bis(2-hydroxy-2-phenylacetamide)] and `O=C(Cc1cccc(OC(F)(F)F)c1)Nc1nnc([C@H]2CCC[C@H](c3nnc(NC(=O)[C@@H](O)c4ccccc4)s3)C2)s1` [Compound 372, (S)-2-hydroxy-2-phenyl-N-(5-((1S,3S)-3-(5-(2-(3-(trifluoromethoxy)phenyl)acetamido)-1,3,4-thiadiazol-2-yl)cyclohexyl)-1,3,4-thiadiazol-2-yl)acetamide] cannot be ordered by IC50: less than 100 nM for the first, less than 100 nM for the second.

First: CC(C)(CO)C(=O)Nc1nnc([C@H]2CCC[C@H](c3nnc(NC(=O)C(C)(C)CO)s3)C2)s1 [Compound 63, N,N′-(5,5′-((1S,3S)-cyclohexane-1,3-diyl)bis(1,3,4-thiadiazole-5,2-diyl))bis(3-hydroxy-2,2-dimethylpropanamide)]
Second: O=C(CC1CC1)Nc1nnc([C@H]2CCC[C@H](c3nnc(NC(=O)CC4CC4)s3)C2)s1 [Compound 49, N,N′-(5,5′-((1S,3S)-cyclohexane-1,3-diyl)bis(1,3,4-thiadiazole-5,2-diyl))bis(2-cyclopropylacetamide)]
The IC50 of the first is higher: 500 to 1000 nM for the first, 100 to 500 nM for the second. The second is the more potent here.

`COc1cccc(CC(=O)Nc2nnc([C@H]3CCC[C@H](c4nnc(NC(=O)Cc5cccc(OC)c5OC)s4)C3)s2)c1OC` [Compound 112, N,N′-(5,5′-((1S,3S)-cyclohexane-1,3-diyl)bis(1,3,4-thiadiazole-5,2-diyl))bis(2-(2,3-dimethoxyphenyl)acetamide)] and `COc1ccccc1CC(=O)Nc1nnc([C@@H]2CC[C@@H](c3nnc(NC(=O)Cc4ccccc4OC)s3)C2)s1` (stereo in doubt) [Compound 291, N,N′-(5,5′-((1S,3S)-cyclopentane-1,3-diyl)bis(1,3,4-thiadiazole-5,2-diyl))bis(2-(2-methoxyphenyl)acetamide)] cannot be ordered by IC50: less than 100 nM for the first, less than 100 nM for the second.

First: O=C(CN1CCCC1=O)Nc1nnc([C@H]2CCC[C@H](c3nnc(NC(=O)CN4CCCC4=O)s3)C2)s1 [Compound 85, N,N′-(5,5′-((1S,3S)-cyclohexane-1,3-diyl)bis(1,3,4-thiadiazole-5,2-diyl))bis(2-(2-oxopyrrolidin-1-yl)acetamide)]
Second: O=C(Cc1ncccn1)Nc1nnc([C@H]2CCC[C@H](c3nnc(NC(=O)Cc4ncccn4)s3)C2)s1 [Compound 27, N,N′-(5,5′-((1S,3S)-cyclohexane-1,3-diyl)bis(1,3,4-thiadiazole-5,2-diyl))bis(2-(pyrimidin-2-yl)acetamide)]
The IC50 of the first is higher: 500 to 1000 nM for the first, less than 100 nM for the second.

`CN(C)c1ccc(CC(=O)Nc2nnc([C@H]3CCC[C@H](c4nnc(NC(=O)Cc5ccc(N(C)C)cc5)s4)C3)s2)cc1` [Compound 31, N,N′-(5,5′-((1S,3S)-cyclohexane-1,3-diyl)bis(1,3,4-thiadiazole-5,2-diyl))bis(2-(4-(dimethylamino)phenyl)acetamide)] and `CN(C)c1cccc(CC(=O)Nc2nnc([C@H]3CCC[C@H](c4nnc(NC(=O)Cc5cccc(N(C)C)n5)s4)C3)s2)n1` (single isomer, unassigned) [Compound 105] cannot be ordered by IC50: less than 100 nM for the first, less than 100 nM for the second.

`N#Cc1ccc(CC(=O)Nc2nnc([C@H]3CCC[C@H](c4nnc(NC(=O)Cc5ccc(C#N)cn5)s4)C3)s2)nc1` (single isomer, unassigned) [Compound 101] and `COc1ccc(CC(=O)Nc2nnc([C@H]3CC[C@H](c4nnc(NC(=O)Cc5ccc(OC)cn5)s4)C3)s2)nc1` [Compound 347, N,N′-(5,5′-((1S,3S)-cyclopentane-1,3-diyl)bis(1,3,4-thiadiazole-5,2-diyl))bis(2-(5-methoxypyridin-2-yl)acetamide)] cannot be ordered by IC50: less than 100 nM for the first, less than 100 nM for the second.

`O=C(Cc1ccnc(N2CC(F)(F)C2)n1)Nc1nnc([C@H]2CCC[C@H](c3nnc(NC(=O)Cc4ccnc(N5CC(F)(F)C5)n4)s3)C2)s1` [Compound 346, N,N′-(5,5′-((1R,3R)-cyclohexane-1,3-diyl)bis(1,3,4-thiadiazole-5,2-diyl))bis(2-(2-(3,3-difluoroazetidin-1-yl)pyrimidin-4-yl)acetamide)] and `O=C(Cc1cccc(OC(F)(F)F)c1)Nc1nnc([C@H]2CCC[C@H](c3nnc(NC(=O)Cc4cccc(N5CC(F)(F)C5)n4)s3)C2)s1` [Compound 388, 2-(6-(3,3-difluoroazetidin-1-yl)pyridin-2-yl)-N-(5-((1S,3S)-3-(5-(2-(3-(trifluoromethoxy)phenyl)acetamido)-1,3,4-thiadiazol-2-yl)cyclohexyl)-1,3,4-thiadiazol-2-yl)acetamide] cannot be ordered by IC50: less than 100 nM for the first, less than 100 nM for the second.

`CC(=O)N(C)c1cccc(CC(=O)Nc2nnc([C@H]3CCC[C@H](c4nnc(NC(=O)Cc5cccc(N(C)C(C)=O)n5)s4)C3)s2)n1` [Compound 385, N,N′-(5,5′-((1S,3S)-cyclohexane-1,3-diyl)bis(1,3,4-thiadiazole-5,2-diyl))bis(2-(6-(N-methylacetamido)pyridin-2-yl)acetamide)] and `COc1cccc(CC(=O)Nc2nnc([C@H]3CCC[C@H](c4nnc(NC(=O)Cc5cccc(OC)c5)s4)C3)s2)c1` (single isomer, unassigned) [Compound 71] cannot be ordered by IC50: less than 100 nM for the first, less than 100 nM for the second.

`CN1CCC(c2cccc(CC(=O)Nc3nnc([C@H]4CCC[C@H](c5nnc(NC(=O)Cc6cccc(C7CCN(C)CC7)c6)s5)C4)s3)c2)CC1` [Compound 362, N,N′-(5,5′-((1S,3S)-cyclohexane-1,3-diyl)bis(1,3,4-thiadiazole-5,2-diyl))bis(2-(3-(1-methylpiperidin-4-yl)phenyl)acetamide)] and `O=C(Cc1cccc(N2CC(F)C2)c1)Nc1nnc([C@H]2CCC[C@H](c3nnc(NC(=O)Cc4cccc(N5CC(F)C5)c4)s3)C2)s1` [Compound 348] cannot be ordered by IC50: less than 100 nM for the first, less than 100 nM for the second.

`O=C(Cc1cc2ccccc2[nH]1)Nc1nnc([C@H]2CCC[C@H](c3nnc(NC(=O)Cc4cc5ccccc5[nH]4)s3)C2)s1` [Compound 34] and `O=C(Cc1ccccc1Cl)Nc1nnc([C@H]2CCC[C@H](c3nnc(NC(=O)Cc4ccccc4Cl)s3)C2)s1` [Compound 51, N,N′-(5,5′-((1S,3S)-cyclohexane-1,3-diyl)bis(1,3,4-thiadiazole-5,2-diyl))bis(2-(2-chlorophenyl)acetamide)] fall in the same range of IC50: 100 to 500 nM for the first, 100 to 500 nM for the second.

`N#Cc1cccc(CC(=O)Nc2nnc([C@H]3CCC[C@H](c4nnc(NC(=O)Cc5cccc(CN)c5)s4)C3)s2)c1` [Compound 361] and `O=C(Cc1cccc([N+](=O)[O-])c1)Nc1nnc([C@H]2CCC[C@H](c3nnc(NC(=O)Cc4cccc([N+](=O)[O-])c4)s3)C2)s1` [Compound 69, N,N′-(5,5′-((1S,3S)-cyclohexane-1,3-diyl)bis(1,3,4-thiadiazole-5,2-diyl))bis(2-(3-nitrophenyl)acetamide)] cannot be ordered by IC50: less than 100 nM for the first, less than 100 nM for the second.

`O=C(Cc1cccc(OC(F)(F)F)c1)Nc1nnc([C@H]2CCC[C@H](c3nnc(NC(=O)C(CO)c4ccccc4)s3)C2)s1` (stereo partly shown) [Compound 381] and `O=C(Cc1cccc(OC(F)(F)F)c1)Nc1nnc([C@H]2CC[C@H](c3nnc(NC(=O)[C@@H](O)c4ccccc4)s3)C2)s1` [Compound 374, (S)-2-hydroxy-2-phenyl-N-(5-((1S,3S)-3-(5-(2-(3-(trifluoromethoxy)phenyl)acetamido)-1,3,4-thiadiazol-2-yl)cyclopentyl)-1,3,4-thiadiazol-2-yl)acetamide] cannot be ordered by IC50: less than 100 nM for the first, less than 100 nM for the second.

Work on `O=C(Cc1ccccc1OC(F)(F)F)Nc1nnc([C@H]2CCC[C@H](c3nnc(NC(=O)Cc4ccccc4OC(F)(F)F)s3)C2)s1` [Compound 75, N,N′-(5,5′-((1S,3S)-cyclohexane-1,3-diyl)bis(1,3,4-thiadiazole-5,2-diyl))bis(2-(2-(trifluoromethoxy)phenyl)acetamide)] yielded an IC50 of 100 to 500 nM.
